This note sets out measurements from patent US9938335B2, “Glucagon and GLP-1 co-agonist compounds” (Eli Lilly and Company, priority 2015, dated 2018).

Converted amounts (≈) assume the structure as drawn. Read-outs that look alike come from different tables or passages of the source. Starred links: 1 amine or outer side, 2 acyl side, 3 side chain; linkers in the order of their positions; H or OH if unused. Non-standard residues stand in square brackets, D forms with d. Residues, ends and D or L forms follow the SMILES beside them. Groups on a side chain read outwards from the residue. *: point of attachment. C18 diacid = O=C(O)CCCCCCCCCCCCCCCCC(=O)*; γGlu = O=C(O)[C@H](CCC(=O)[*:2])N[*:1]; AEEA = NCCOCCOCC(=O)O; Aib = CC(C)(N)C(=O)O

Data set [1] can be described thus: Solubility (RP-HPLC and HPLC-SEC, 1 week at 4° C.). The data set is classed as physicochemical. To be noted: for HMW species formation by SEC-HPLC: 1 week at 4° C.; for visible precipitation or phase separation: after 1 week storage at 4° C. The method, then: Solubility of compounds of the present invention is measured in an Agilent 1100 HPLC, an Agilent 1200 HPLC and a Nanodrop 2000. The following HPLC columns are used:
(a) RP-HPLC: Waters Symmetry Shield C18, 3.6 um, 4.6×100 mm
(b) HPLC-SEC: Tosoh Biosciences, TSK2000SWXL […]
All peptide concentrations are made at 10 mg/mL in the following:
(a) 10 mM Tris pH 8.0+3 mg/mL m-cresol
(b) 10 mM Tris pH 8.0+3 mg/mL m-cresol+150 mM NaCl
(c) 10 mM Tris pH 8.0+3 mg/mL m-cresol+0.02% Tween-20
5 mL of 10 mg/mL peptide dissolved in 10 mM Tris at pH 8.0 is concentrated to approximately 20 mg/mL using Amicon-ultra 3 kDa MWCO devices. The solution is filtered using Millivex 0.22 μM filters (PVDF membrane) and the final concentration is measured by the NanoDrop spectrometer. This stock solution is used to formulate to the final conditions stated above using 3× m-cresol, 10× NaCl, and 100× Tween-20 stock solutions. A 10 mg/mL PBS solution is also prepared by dissolving directly at 5 mg/mL and concentrating using Amicon-ultra 3 kDa MWCO devices.
Each solution is placed in a refrigerator at 4° C. for 1 week, with analysis by RP-HPLC to assess concentration and HPLC-SEC to assess HMW species formation. Analyses completed at T-0 week and T-1 week.
The solubility of Compounds 1-4 was measured essentially as described in this assay.
On the technique in general: Size exclusion chromatography separates by hydrodynamic size, large species first.

Data set [2] concerns the target T1, hGcg-R (Homo sapiens, UniProt P47871). In words: hGcg-R Binding Assay (SPA radioligand competition, 293HEK membranes). The conditions noted are these: read-out: Ki, nM ± SEM at the hGcg-R. A general note: In a radioligand displacement assay an active substance lowers the binding of a labelled ligand.
The subject of data set [3] is DIO mice (C57BL/6). Description: Effects on energy expenditure in DIO mice (indirect calorimetry). Format: in vivo, mouse. The conditions noted are these: for Cumulative Heat (Kcal/kg lean mass/3 day): test article 15 nmol/kg, semaglutide 60 nmol/kg sc every three days. The method, then:
Seven to eight months old male DIO mice (C57BL/6) weighing 45-50 g are used in this study to assess the effect of compounds of the present invention on energy metabolism. Animals are individually housed in a temperature-controlled (24° C.) facility with a 12 hour light/dark cycle (lights on 22:00), and free access to food (TD95217)(Teklad) and water. After 2 weeks acclimation to the facility, mice are randomized to treatment groups (N=6/group) based on body weight so each group has similar starting mean body weight. Animals are placed in a PhenoMaster/LabMaster calorimeter (TSE Systems, Chesterfield, Mo.) for 8 days of acclimation.
Heat and […] (RER) are measured by indirect calorimetry as described using an open-circuit calorimetry system. RER is the ratio of the volume of CO2 produced (VCO2) to the volume of O2 consumed (VO2). Heat is calculated with lean body weight considered. The energy expenditure is kcal/kg/3 day and expressed as mean±SEM of 6 mice per group. Statistical significance is assessed by two-way ANOVA followed by Tukey's multiple comparison test.

Data set [4] concerns the target T1, hGcg-R. Description: Functional activation of hGcg-R in primary human hepatocytes (cAMP). The data set is classed as cell-based. Further details: stimulating cAMP production at the endogenous Gcg receptors; endogenous in cells; host or cells: cryopreserved primary human hepatocytes.
Method: Primary human hepatocytes are used to determine functional activity of compounds on stimulating cAMP production at the endogenous Gcg receptors. Vials of human primary hepatocytes are frozen in a liquid nitrogen tank. Upon removal, vials are thawed immediately in a water bath having a temperature of 37° C. Cell suspension is then transferred to 50 ml CHRM (Gibco/Life Technologies cat#CM7000 Cryopreserved Hepatocyte Recovery Medium).
The cell suspension is centrifuged at 1,000×g for 10 min. Cell pellets are resuspended in 5 ml of Plating Media after removing the CHRM by aspiration. The Plating Media is prepared by adding entire contents of CM3000 Supplement Packs to 500 ml Williams Media (Gibco/Life Technologies), followed by sterile filtration through a 0.22 μm membrane.
The cell density is counted on hemocytometer, by adding 100 μl of cell suspension to 100 μl Trypan Blue (HyClone Trypan Blue 0.04%, catalog number SV30084.01). The cell suspension is further diluted in the Plating Media to the final cell density of 0.8×10^6 cells per ml. […] 65 ml of the cell suspension is then added to each well of the Collagen coated 96-well plate to final cell density 50,000 cells per well. The cell plate is incubated in a 37° C., 5% CO2 incubator for 3-4 hours.
After 3-4 hours incubation, the media is aspirated and replaced with 100 ml Maintenance Media. The maintenance media is prepared by adding entire contents of CM4000 Supplement Packs to 500 ml Williams Media (Gibco/Life Technologies), followed by sterile filtration through a 0.22 μm membrane. The cell plate is returned to the 37° C., 5% CO2 incubator overnight in preparation for the cAMP assay.
The cell plate is removed from the incubator and the media is removed by gentle aspiration without disturbing the cell monolayer.
cAMP concentration is measured using a HTRF cAMP assay kit (Cisbio): cAMP-d2 conjugate in cell lysis buffer (40 μl) followed by the antibody anti-cAMP-Eu^3+-Cryptate, also in cell lysis buffer (40 μl), is added to the cells of the plate.
The nature of data set [5]: Pharmacokinetics in cynomolgus monkeys. Format: in vivo. The conditions noted are these: Table 8: single SC 50 nmol/kg; for Cmax: read-out: Cmax. How it is done: The compounds are administered by a single intravenous or subcutaneous dose of 50 nmole/kg or 250 nmole/kg.
The plasma concentrations of compounds are determined by a LC/MS method. Briefly, a compound of the present invention is extracted from 100% monkey plasma (25 μl) using acetonitrile. Two distinct layers are formed upon centrifugation with the compound located in the liquid layer. An 80 μl aliquot of the supernatant was transferred to a 96-well plate, diluted with 150 μl of water and 25 μl of formic acid. The diluted sample (10 μl) was injected onto a Supelco Analytical Discovery BIO Wide Pore C5-3, 5 cm×1 mm, 3 um column. The column effluent is directed into a Thermo Q-Exactive mass spectrometer for detection and quantitation.

Where [6] appears, read: 10 mM Tris pH 8.0 + 3 mg/mL m-cresol + 0.02% Tween-20, Tris pH 8 + 3 mg/mL m-cresol + 0.02% Tween-20.
Setting [7] is: 10 mM Tris pH 8.0 + 3 mg/mL m-cresol + 150 mM NaCl, Tris pH 8 + 3 mg/mL m-cresol + 150 mm NaCl.
Setting [8] is: 10 mM Tris pH 8.0 + 3 mg/mL m-cresol, Tris pH 8 + 3 mg/mL m-cresol.
Setting [9] is: PBS pH 7.4, pH 7.4, read-out: solubility in PBS, pH 7.4.
Setting [10] is: male, cynomolgus monkey, plasma, sc, 50 nmol/kg, individual animals.
[11] abbreviates: male, cynomolgus monkey, plasma, sc, 50 nmol/kg, mean.

T1 sequence (P47871 26-477): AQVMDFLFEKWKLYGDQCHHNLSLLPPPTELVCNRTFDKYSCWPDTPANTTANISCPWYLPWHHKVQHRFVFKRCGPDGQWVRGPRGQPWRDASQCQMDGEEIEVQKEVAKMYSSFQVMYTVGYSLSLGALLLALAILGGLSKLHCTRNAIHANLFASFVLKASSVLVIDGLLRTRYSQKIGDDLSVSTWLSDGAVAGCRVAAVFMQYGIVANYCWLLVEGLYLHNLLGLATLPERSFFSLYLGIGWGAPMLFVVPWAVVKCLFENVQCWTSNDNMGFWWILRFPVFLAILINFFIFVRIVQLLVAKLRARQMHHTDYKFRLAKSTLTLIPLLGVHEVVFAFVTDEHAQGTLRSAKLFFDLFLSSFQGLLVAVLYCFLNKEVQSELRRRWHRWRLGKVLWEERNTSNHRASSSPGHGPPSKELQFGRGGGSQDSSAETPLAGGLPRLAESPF

`CC(C)C[C@H](NC(=O)[C@H](CC(C)C)NC(=O)[C@H](Cc1c[nH]c2ccccc12)NC(=O)[C@H](CCC(=O)O)NC(=O)[C@@H](NC(=O)[C@H](Cc1ccccc1)NC(=O)[C@H](CCC(=O)O)NC(=O)[C@H](CCCCNC(=O)COCCOCCNC(=O)COCCOCCNC(=O)CC[C@H](NC(=O)CC[C@H](NC(=O)CCCCCCCCCCCCCCCCC(=O)O)C(=O)O)C(=O)O)NC(=O)[C@H](C)NC(=O)[C@H](CCCCN)NC(=O)[C@H](CCCCN)NC(=O)[C@H](CCC(=O)O)NC(=O)[C@H](CC(=O)O)NC(=O)[C@H](CC(C)C)NC(=O)[C@H](Cc1ccc(O)cc1)NC(=O)[C@H](CCCCN)NC(=O)[C@H](CO)NC(=O)[C@H](Cc1ccc(O)cc1)NC(=O)[C@H](CC(=O)O)NC(=O)[C@H](CO)NC(=O)[C@@H](NC(=O)[C@H](Cc1ccccc1)NC(=O)[C@@H](NC(=O)CNC(=O)[C@H](CCC(N)=O)NC(=O)C(C)(C)NC(=O)[C@@H](N)Cc1c[nH]cn1)[C@@H](C)O)[C@@H](C)O)C(C)C)C(=O)N[C@@H](CO)C(=O)NCC(=O)NCC(=O)N1CCC[C@H]1C(=O)N[C@@H](CO)C(=O)N[C@@H](CO)C(=O)NCC(N)=O` [Compound 3] (H-H[Aib]QGTFTSDYSKYLDEKKAK([AEEA-AEEA-γGlu-γGlu-C18 diacid])EFVEWLLSGGPSSG-NH2; N-terminus assumed): the solubility (commonly the dissolved amount per volume that the medium holds) at 1 week in data set [1] (setting [6]) came out at 10000 µg/mL; in data set [1] (setting [7]), 10000 µg/mL; in data set [1] (setting [8]), 10000 µg/mL; in data set [1] (setting [9]), 10000 µg/mL (≈ 2160 µM). For the same compound, in data set [1], the “HMW species formation by SEC-HPLC” value is “No observed HMW species formation by SEC-HPLC;”. In addition, in data set [1], the “visible precipitation or phase separation” value is listed as “No visible precipitation or phase separation observed after 1 week”. Also, the inhibition constant (Ki) (as a rule, a dissociation constant, usually derived from enzyme kinetics or from competition with a known ligand) in data set [2] worked out at 37.3 ± 4.2 nM.

Take `CC(C)C[C@H](NC(=O)[C@H](CC(C)C)NC(=O)[C@H](Cc1c[nH]c2ccccc12)NC(=O)[C@H](CCC(=O)O)NC(=O)[C@@H](NC(=O)[C@H](Cc1ccccc1)NC(=O)[C@H](CCC(=O)O)NC(=O)[C@H](CCCCNC(=O)COCCOCCNC(=O)COCCOCCNC(=O)CC[C@H](NC(=O)CCCCCCCCCCCCCCCCC(=O)O)C(=O)O)NC(=O)[C@H](C)NC(=O)[C@H](CCCCN)NC(=O)[C@H](CCCCN)NC(=O)[C@H](CCC(=O)O)NC(=O)[C@H](CC(=O)O)NC(=O)[C@H](CC(C)C)NC(=O)[C@H](Cc1ccc(O)cc1)NC(=O)[C@H](CCCCN)NC(=O)[C@H](CO)NC(=O)[C@H](Cc1ccc(O)cc1)NC(=O)[C@H](CC(=O)O)NC(=O)[C@H](CO)NC(=O)[C@@H](NC(=O)[C@H](Cc1ccccc1)NC(=O)[C@@H](NC(=O)CNC(=O)[C@H](CCC(N)=O)NC(=O)C(C)(C)NC(=O)[C@@H](N)Cc1c[nH]cn1)[C@@H](C)O)[C@@H](C)O)C(C)C)C(=O)N[C@@H](CCC(=O)O)C(=O)NCC(=O)NCC(=O)N1CCC[C@H]1C(=O)N[C@@H](CO)C(=O)N[C@@H](CO)C(=O)NCC(N)=O` [Compound 1]: in data set [3] (DIO mice, chronic treatment), the metabolic rate result is listed as “increased their metabolic rate starting from Week 2”. Further, the “Cumulative Heat (Kcal/kg lean mass/3 day)” value was found to be 1749 ± 136 Kcal/kg lean mass/3 day in data set [3] (Day 1 to Day 4), 1822 ± 173 Kcal/kg lean mass/3 day in data set [3] (Day 4 to Day 7), 2349 ± 129 Kcal/kg lean mass/3 day in data set [3] (Day 7 to Day 10) and 2351 ± 144 Kcal/kg lean mass/3 day in data set [3] (Day 10 to Day 13). Moreover, the solubility at 1 week was determined as 10000 µg/mL in data set [1] (setting [6]), 10000 µg/mL in data set [1] (setting [7]), 10000 µg/mL in data set [1] (setting [8]) and 10000 µg/mL (≈ 2210 µM) in data set [1] (setting [9]). Moreover, the “HMW species formation by SEC-HPLC” value in data set [1] is listed as “No observed HMW species formation by SEC-HPLC;”. Also, the “visible precipitation or phase separation” value in data set [1] is recorded as “No visible precipitation or phase separation observed after 1 week”. Besides, the Emax – broadly, the greatest response seen or fitted, relative to the assay's reference – in data set [4] (percent of maximal response with a Gcg analog conjugated to a saturated C18 fatty acid (diacid)) was found to be 100%. In addition, a half-maximal effect in data set [4] (primary human hepatocytes, cAMP, 1 hour) (EC50) was put at 99.9 nM. The cAMP production entry in data set [4] (primary human hepatocytes, data not shown) is “increased cAMP production in a dose-dependent manner”. In addition, in data set [2], the Ki came out at 14.6 ± 4.4 nM. Besides, the AUC(0-inf) in data set [5] (individual animals) was 21.672 µM·h; in data set [5] (male, cynomolgus monkey, plasma, sc, 50 nmol/kg, individual animals, read-out: AUC0-inf) it was 24.9 µM·h; in data set [5] (male, cynomolgus monkey, plasma, sc, 50 nmol/kg, mean, read-out: AUC0-inf), 23.3 µM·h. In addition, the CL/F was 2.31 mL/h/kg in data set [5] (individual animals); 2.01 mL/h/kg in data set [5] (male, cynomolgus monkey, plasma, sc, 50 nmol/kg, individual animals, read-out: CL/F (converted)); 2.16 mL/h/kg in data set [5] (male, cynomolgus monkey, plasma, sc, 50 nmol/kg, mean, read-out: CL/F (converted)). Further, the Cmax (in general, the maximum level reached in the sampled fluid or tissue) in data set [5] (individual animals) was 253 nM; in data set [5] (setting [10]), 236 nM; in data set [5] (setting [11]) it was 244 nM. Also, the T1/2 in data set [5] (male cynomolgus monkeys, individual animals) was 47 h. Moreover, the results for the Tmax in data set [5] (setting [10]) and in data set [5] (setting [11]) were 12 h and about 12 h, respectively. Also, the half-life (usually the time needed for the level to fall by half in the phase considered) in data set [5] (male, cynomolgus monkey, plasma, sc, 50 nmol/kg, male cynomolgus monkeys, individual animals) was 67 h; in data set [5] (setting [11]), 57 h.
